# Data: ChEMBL document CHEMBL1125480, “Studies on antidiabetic agents. 11. Novel thiazolidinedione derivatives as potent hypoglycemic and hypolipidemic agents” (1992)
# Assays:
# Assay type in all cases: functional
# [1] = species on record: Mus musculus; experiment: Compound was tested for maximum reduction in plasma triglyceride levels in KKA mice at a dosage of 0.05% in diet
# [2] = species on record: Mus musculus; experiment: Compound was tested for maximum reduction in blood glucose levels in KKA mice at a dosage of 0.01% in diet
# [3] = species on record: Mus musculus; experiment: Effective dose to reduce 25% of triglyceride levels in plasma
# [4] = species on record: Mus musculus; experiment: Compound was tested for maximum reduction in plasma triglyceride levels in KKA mice at a dosage of 0.01% in diet
# [5] = species on record: Mus musculus; experiment: Compound was tested for maximum reduction in blood glucose levels in KKA mice at a dosage of 0.05% in diet
# [6] = species on record: Mus musculus; experiment: (§1) Effective dose to reduce 25% of glucose levels in blood; details: Mus musculus, Blood
# [7] = species on record: Mus musculus; experiment: Maximum reduction in plasma triglyceride levels in KKA mice at a dosage of 0.005% in diet
# [8] = species on record: Mus musculus; experiment: Maximum reduction in blood glucose levels in KKA mice at a dosage of 0.005% in diet
# [9] = species on record: Mus musculus; experiment: Maximum reduction in plasma triglyceride levels in KKA mice at a dosage of 0.001% in diet
# [10] = species on record: Mus musculus; experiment: Maximum reduction in blood glucose levels in KKA mice at a dosage of 0.001% in diet
# [11] = as §1; details: Mus musculus
SMILES,Reduction [1],Reduction [2],ED25 [3],Reduction [4],Reduction [5],ED25 [6],Reduction [7],Reduction [8],Reduction [9],Reduction [10],ED25 [11]
O=C1NC(=O)C(Cc2ccc(OCCc3coc(-c4ccccc4)n3)cc2)S1 (configuration not stated),68%,41%,0.5 mg/kg/day,51%,58%,0.3 mg/kg/day,–,–,–,–,–
Cc1oc(-c2ccco2)nc1CCOc1ccc(CC2SC(=O)NC2=O)cc1 (configuration not stated),–,–,0.9 mg/kg/day,–,–,–,69%,50%,41%,50%,0.4 mg/kg/day
